Type in all cases: in vivo
In assay [1] the test system is Puccinia recondita tritici. Description: Leaf Rust of Wheat foliar spray test, inoculated one day after treatment. Particulars: applied to foliage at 200 ppm, wheat plants, read-out: Activity against Fungal Diseases PUCCRT (percent disease control). How it is done:
(§1) Fungicide activity data are the level (in percent) at which the given disease was controlled when the given compound was applied to the foliage of the plants at 200 ppm. In a few cases (noted in the table) the compound was applied to the plants at 25 ppm or 3 ppm. The plants were inoculated with the fungus one day after treatment. ***=80-100% control; **=50-79% control; *=0-49% control. […] The activity of the compounds as effective fungicides was determined by applying the compounds to plants and observing control of fungal disease. […] All plants were inoculated with spores of the fungus the day after treatment, then incubated in an environment conducive to disease development. Disease severity was evaluated 4 to 25 days (d) later, depending on the speed of disease development. The following experiments were performed in the laboratory to determine the fungicidal efficacy of the compounds of the invention. […] Each pot contained 3-8 seedlings. These plants were sprayed until wet with the formulated test compounds. On the following day, the leaves were inoculated with an aqueous spore suspension of Puccinia recondita tritici and the plants were kept in high humidity overnight to permit spores to germinate and infect the leaf. The plants were then transferred to a greenhouse until disease developed on untreated control plants. […] The effectiveness of the test compounds at controlling disease when sprayed on leaves was determined by assessing the severity of disease on treated plants, then converting the severity to percent control based on the level of disease on untreated, inoculated plants.

The subject of another assay is Pyricularia oryzae. Description: whole plant or invertebrate. Particulars: foliar, read-out: Activity against Fungal Diseases PYRIOR (percent disease control).
The subject of assay [2] is Pseudoperonospora cubensis. Description: Cucumber Downy Mildew foliar spray test, inoculated one day after treatment. As to conditions: applied to foliage at 200 ppm, cucumber plants, read-out: Activity against Fungal Diseases PSPECU (percent disease control). How it is done:
Fungicide activity data are the level (in percent) at which the given disease was controlled when the given compound was applied to the foliage of the plants at 200 ppm. In a few cases (noted in the table) the compound was applied to the plants at 25 ppm or 3 ppm. The plants were inoculated with the fungus one day after treatment. ***=80-100% control; **=50-79% control; *=0-49% control. […] The activity of the compounds as effective fungicides was determined by applying the compounds to plants and observing control of fungal disease. […] All plants were inoculated with spores of the fungus the day after treatment, then incubated in an environment conducive to disease development. Disease severity was evaluated 4 to 25 days (d) later, depending on the speed of disease development. The following experiments were performed in the laboratory to determine the fungicidal efficacy of the compounds of the invention. Cucumber Downy Mildew (causal agent Pseudoperonospora cubensis; Bayer code […]): Cucumber plants (variety 'Bush Champion' or 'Bush Pickle Hybrid') were grown from seed in a soil-less peat-based potting mixture (Metromix) until the first true leaf was 20-80% expanded. Each pot contained 1 seedling. These plants were sprayed until wet with the formulated test compound. On the following day, the leaves were inoculated with an aqueous suspension of downy mildew sporangia and the plants were kept in high humidity for one day to permit sporangia to germinate and infect the leaf. The plants were then incubated in a growth chamber until disease developed on untreated control plants. […] The effectiveness of the test compounds at controlling disease when sprayed on leaves was determined by assessing the severity of disease on treated plants, then converting the severity to percent control based on the level of disease on untreated, inoculated plants.

Another assay has as its system Septoria tritici. The experiment in a line: Septoria Blotch of Wheat foliar spray test, inoculated one day after treatment. Particulars: Zymoseptoria tritici, wheat plants, read-out: Activity against Fungal Diseases SEPTTR (percent disease control); for pest or weed control at 25 ppm: Tested at 25 ppm; for pest or weed control at 200 ppm: applied to foliage at 200 ppm. How it is done:
as §1, with “3-10” for “3-8”, “compound.” for “compounds.”, “Septoria” for “Puccinia recondita”, “(one day in a dark dew chamber followed by two days in a lighted dew chamber)” for “overnight”

In US8921382B2, “Thiazolo[5,4-d] pyrimidines and their use as agrochemicals” (Dow AgroSciences, LLC., priority 2010, dated 2014) one finds pest or weed control data, which are given here for 15 compounds.

For `COc1cc(CCNc2ncnc3scnc23)ccc1Oc1c(F)cnc(C(F)(F)F)c1F` [Compound 32, {2-[4-(3,5-difluoro-2-trifluoromethylpyridin-4-yloxy)-3-methoxyphenyl]-ethyl}-thiazolo[5,4-d]pyrimidin-7-ylamine], the pest or weed control at 200 ppm (in assay [1]; in the assay on Pyricularia oryzae; in assay [2]) was 80 to 100% throughout. Besides, the pest or weed control at 25 ppm with Septoria tritici was 80 to 100%.

With `Fc1cnc(Oc2ccc(CCNc3ncnc4scnc34)cc2)c(F)c1C(F)(F)F` [Compound 36, {2-[4-(3,5-difluoro-4-trifluoromethylpyridin-2-yloxy)-phenyl]-ethyl}-thiazolo[5,4-d]pyrimidin-7-ylamine], the pest or weed control at 200 ppm (in assay [1]; with Pyricularia oryzae; in assay [2]; with Septoria tritici) was 80 to 100% in each case.

For the compound `CC(Cc1ccc(Oc2cc(C(F)(F)F)ccn2)cc1)Nc1ncnc2scnc12` (stereo not drawn) [Compound 18, {1-methyl-2-[4-(4-trifluoromethylpyridin-2-yloxy)-phenyl]-ethyl}-thiazolo[5,4-d]pyrimidin-7-ylamine], the pest or weed control at 200 ppm (in assay [1]; in the assay with Pyricularia oryzae; in assay [2]; with Septoria tritici) was 80 to 100% each time.

`Cc1cc(C(F)(F)F)cc(Oc2ccc(CCNc3ncnc4scnc34)cc2)n1` [Compound 62, {2-[4-(6-methyl-4-trifluoromethylpyridin-2-yloxy)-phenyl]-ethyl}-thiazolo[5,4-d]pyrimidin-7-ylamine]: the pest or weed control at 200 ppm (in assay [1]; in the assay on Pyricularia oryzae; in assay [2]; with Septoria tritici) was 80 to 100% in each case.

With `Cc1cc(CCNc2ncnc3scnc23)ccc1Oc1cc(C(F)(F)F)ccn1` [Compound 23, {2-[3-methyl-4-(4-trifluoromethylpyridin-2-yloxy)-phenyl]-ethyl}-thiazolo[5,4-d]pyrimidin-7-ylamine], the pest or weed control at 200 ppm (in assay [1]; in the assay on Pyricularia oryzae; in assay [2]; in the assay with Septoria tritici) was 80 to 100% each time.

`CC(Nc1ncnc2scnc12)c1ccc(Oc2cc(C(F)(F)F)ccn2)cc1` (stereo not drawn) [Compound 35, thiazolo[5,4-d]pyrimidin-7-yl-{1-[4-(4-trifluoromethylpyridin-2-yloxy)-phenyl]-ethyl}-amine]: the pest or weed control at 200 ppm (in assay [1]; in the assay with Pyricularia oryzae; in assay [2]; in the assay on Septoria tritici) was 80 to 100% in each case.

With `Cc1cc(CCNc2ncnc3scnc23)ccc1Oc1cc(C(F)(F)F)ncn1` [Compound 53, {2-[3-methyl-4-(6-trifluoromethylpyrimidin-4-yloxy)-phenyl]-ethyl}-thiazolo[5,4-d]pyrimidin-7-ylamine], the pest or weed control at 200 ppm (in assay [1]; with Pyricularia oryzae; in assay [2]) was 80 to 100% in each case. Moreover, the pest or weed control at 25 ppm in the assay on Septoria tritici was in the range of 80 to 100%.

As for `Cc1cc(Oc2cc(C(F)(F)F)ccn2)c(C)cc1CCNc1ncnc2scnc12` [Compound 13, {2-[2,5-dimethyl-4-(4-trifluoromethylpyridin-2-yloxy)-phenyl]-ethyl}-thiazolo[5,4-d]pyrimidin-7-ylamine], the pest or weed control at 200 ppm (in assay [1]; with Pyricularia oryzae; in assay [2]; in the assay with Septoria tritici) was 80 to 100% throughout.

Regarding `COC(=O)c1cnc(Oc2ccc(CCNc3ncnc4scnc34)cc2)cc1C(F)(F)F` [Compound 16, 6-{4-[2-(thiazolo[5,4-d]pyrimidin-7-ylamino)-ethyl]-phenoxy}-4-trifluoromethyl-nicotinic acid methyl ester], the pest or weed control at 200 ppm in assay [1] fell in the range of 80 to 100%; with Pyricularia oryzae it was 50 to 79%; in assay [2] it was 80 to 100%; in the assay with Septoria tritici, 50 to 79%.

For `Fc1cc(C(F)(F)F)cnc1Oc1ccc(CCNc2ncnc3scnc23)cc1` [Compound 61, {2-[4-(3-fluoro-5-trifluoromethylpyridin-2-yloxy)-phenyl]-ethyl}-thiazolo[5,4-d]pyrimidin-7-ylamine], the pest or weed control at 200 ppm (in assay [1]; in the assay with Pyricularia oryzae; in assay [2]) was 80 to 100% throughout. Besides, the pest or weed control at 25 ppm in the assay on Septoria tritici was in the range of 50 to 79%.

For the compound `Fc1cc(CCNc2ncnc3scnc23)ccc1Oc1cc(C(F)(F)F)ccn1` [Compound 41, {2-[3-fluoro-4-(4-trifluoromethylpyridin-2-yloxy)-phenyl]-ethyl}-thiazolo[5,4-d]pyrimidin-7-ylamine], the pest or weed control at 200 ppm (in assay [1]; with Pyricularia oryzae; in assay [2]; in the assay with Septoria tritici) was 80 to 100% each time.

For `COc1cc(CCNc2ncnc3scnc23)ccc1Oc1ccncc1C(F)(F)F` [Compound 31, {2-[3-methoxy-4-(3-trifluoromethylpyridin-4-yloxy)-phenyl]-ethyl}-thiazolo[5,4-d]pyrimidin-7-ylamine], the pest or weed control at 200 ppm in assay [1] is 80 to 100%; with Pyricularia oryzae it was 80 to 100%; in assay [2] it was 50 to 79%. Further, the pest or weed control at 25 ppm with Septoria tritici was in the range of 80 to 100%.

For the compound `FC(F)(F)c1ccnc(Oc2ccc(CCNc3ncnc4scnc34)cc2)c1` [Compound 7, thiazolo[5,4-d]pyrimidin-7-yl-{2-[4-(4-trifluoromethylpyridin-2-yloxy)-phenyl]-ethyl}-amine], the pest or weed control at 200 ppm (in assay [1]; with Pyricularia oryzae; in assay [2]; in the assay with Septoria tritici) was 80 to 100% in each case.

In the case of `COC(=O)c1cnc(Oc2ccc(CCNc3ncnc4scnc34)cc2Br)cc1C(F)(F)F` [Compound 27, 6-{2-bromo-4-[2-(thiazolo[5,4-d]pyrimidin-7-ylamino)-ethyl]-phenoxy}-4-trifluoromethyl-nicotinic acid methyl ester], the pest or weed control at 200 ppm was in the range of 80 to 100% in assay [1], 80 to 100% in the assay with Pyricularia oryzae, 80 to 100% in assay [2] and 50 to 79% in the assay on Septoria tritici.

For `FC(F)(F)c1ccncc1Oc1ccc(CCNc2ncnc3scnc23)cc1` [Compound 43, thiazolo[5,4-d]pyrimidin-7-yl-{2-[4-(4-trifluoromethylpyridin-3-yloxy)-phenyl]-ethyl}-amine], the pest or weed control at 200 ppm (in assay [1]; in the assay with Pyricularia oryzae; in assay [2]; in the assay with Septoria tritici) was 80 to 100% in each case.
